Where two headings read alike, the source gives them in different places.
Columns and labels:
[1] = system: harmaline-induced tremor; assay: Test 1: inhibitory activity against harmaline-induced tremor; type: in vivo, ddY-strain mice; settings: for Reduction (%) in the duration of tremor action: 30 minutes before harmaline 10 mg/kg i.p., relative to harmaline-only control
Protocol: This test was made according to one usual method for screening antiparkinsonian drugs which determines inhibitory activity against harmaline-induced tremor.
ddY-strain Mice (male, body weight 20-30 g, five in each group) were used as test animal for respective tests. The new compound, DL-threo-adrenalinecarboxylic acid according to this invention, was intraperitoneally administered to each of the mice at a dosage of 400 mg/kg or […], and after the lapse of 30 minutes harmaline was also intrapenitoneally injected to the same mice at a dosage of 10 mg/kg. Then, the duration of tremor action as induced in the mice under test was observed and recorded. The rate (percentage) of reduction in the duration of tremor action in relation to the control group of mice to which only harmaline was administered in the same dosage was calculated by the equation given below. By way of comparison DL-threo-3-(3,4-dihydroxyphenyl)serine (i.e. DL-threo-DOPS) in a dosage of 400 mg/kg was tested in the same manner as above. [formula]

[2] = type: in vivo, mice; settings: 500 mg/kg i.p., whole brain 90 minutes after administration
Protocol: 90 Minutes after the i.p. administration, the whole brain portion was removed surgically from the mice. The quantity of the threo-adrenalinecarboxylic acid or the quantity of the threo-DOPS which was transferred into and accumulated in the brain portion of mice, as well as the quantity of adrenaline in the brain portion of mice were determined by a high-performance liquid chromatography.

[3] = system: reserpine-induced decrease in the body temperature; assay: Test 2: inhibition of reserpine-induced decrease in body temperature (reserpine 4 mg/kg i.p.); type: in vivo, ddY-strain mice; settings: for Body Temperature (°C.) 1 Hour after / Body Temperature (°C.) 2 Hours after: given 24 hours after reserpine 4 mg/kg i.p.
Protocol: ddY-strain Mice (male, body weight 20-30 g, five in each group) were used as the test animal for respective tests. Reserpine was intraperitoneally administered to each mouse at a dose of 4 mg/kg. 24 Hours later, the decreased body temperature of the mice was observed and recorded. After this, 1500 mg/kg or 2000 mg/kg of DL-threo-adrenalinecarboxylic acid was intraperitoneally administered to each of the mice having received reserpine. At the end of 1 hour and at the end of 2 hours after the administration of the DL-threo-adrenalinecarboxylic acid, the body temperature of these treated mice was determined and shown in Table 3 below.

[4] = system: reserpine-induced decrease in the body temperature and muscular rigidity; assay: Test 3: reserpine-induced decrease in body temperature and muscular rigidity (reserpine 2.5 mg/kg s.c.); type: in vivo, ddY-strain mice; settings: for Body Temperature (°C.) (Average ± Standard deviation) 24 Hours after administration of reserpine: 800 mg/kg group, 24 hours after reserpine 2.5 mg/kg s.c., before test compound; for Body Temperature (°C.) (Average ± Standard deviation) 1 Hour after administration of adrenaline carboxylic acid / Muscular Rigidity: number of mice exhibiting significant improvement in the muscular rigidity per the total number of mice in each group: given 24 hours after reserpine 2.5 mg/kg s.c.; for Body Temperature (°C.) (Average ± Standard deviation) Before administration of reserpine: baseline of the 800 mg/kg group, before reserpine and before test compound
Protocol: After this, 800 mg/kg of L-threo-adrenalinecarboxylic acid or 800 mg/kg of D-threo-adrenalinecarboxylic acid or DL-threo-adrenalinecarboxylic acid synthetized according to this invention was intraperitoneally administered to the mice having received reserpine. One hour after the administration of the threo-adrenalinecarboxylic acid, the body temperature of the treated mice was determined. Estimation was also made about whether the muscular rigidity as induced by reserpine was improved by the administration of the threo-adrenalinecarboxylic acid of this invention.

[5] = Test 4: acute toxicity; settings: i.p., 0.5 ml per mouse of 20 mg/ml suspension in 0.5% CMC
Protocol: This test is carried out to examine acute toxicity of the DL-threo-adrenalinecarboxylic acid.
To DDB4-strain mice (male, body weight 23-28 g, six in each group) was intraperitoneally administered at a dosage of 0.5 ml per mouse a suspension containing 20 mg/ml of DL-threo-adrenalinecarboxylic acid dispersed in an aqueous solution of 0.5% carboxymethylcellulose (CMC). The mice were then raised under normal conditions for 7 days after the administration of the compound. During these 7 days, the mice were observed and estimated with regard to their body weight, the quantity of feedstock and the quantity of water which were taken by the mice.

[6] = cited from earlier work; for levels of noradrenaline in heart and brain: intraperitoneal administration of high dosages; for accumulation of noradrenaline in brain: after intraperitoneal administration, rats; for decarboxylation in vivo, leading to accumulation of noradrenaline in heart: intraperitoneally administered in rats
[7] = Test 7: in vitro decarboxylation by supernatant of mouse whole brain homogenate; settings: mouse, brain homogenate supernatant, pH 8
Protocol: (§1) The whole brains of mice of ddY-strain were homogenized and the resulting brain homogenate was diluted with the same volume of a buffere solution (comprising 50 mM Tris-HCl (pH 8.6, 1.5 mM EDTA.2Na); 0.5 mM Pridoxal-5-Phosphate; 1 mM Nialamide; and 0.85 mM L-ascorbic acid), and the mixture was centrifuged at 10,000 g to give a supernatant liquid containing the brain enzymes. To this supernatant liquid (500 μl) was added a solution containing 4.5 mM of a substrate selected from L-threo-adrenalinecarboxylic acid, L-threo-DOPS and L-DOPA. The mixture obtained (pH ca. 8, 1.0 ml) was incubated for 30 minutes at 37° C., followed by quantitative determination of adrenaline, noradrenaline or dopamine formed as the reaction product catecholamine.
(§2) The determination of the catecholamine as produced (adrenaline, noradrenaline or […]) was made according to the following procedure: Thus, the incubated mixture was admixed with aqueous 6% perchloric acid (PCA) for stopping the enzymatic reactions, and the reaction solution so obtained was de-salted by adding thereto potassium carbonate to precipitate the potassium perchlorate, and removing the precipitate by filtration. The de-salted reaction solution was passed through a column of Amberlite CG-50 as developed with 250 μl of 2N-PCA solution and then with 250μl of water. The eluate was analyzed by a high performance liquid chromatography under the following conditions:
(§3) Mobile Phase: 0.1M Citrate buffer (pH 4.3)-methanol(9:1) containing 0.0025M 1-octane sulfonic acid sodium salt
(§4) Column temperature: 40° C.
(§5) Applied voltage: 600 mV vs. Ag/AgCl.
(§6) The yield of the catecholamine as formed was calculated in term of percentages based on the quantity of the substrate charged, and this calculated yield denotes the rate of decarboxylation of the substrate compound (in %).

[8] = system: brain enzymes (homogenate of the whole brains of mice); assay: as above
Protocol: as §1, §2, §3, §4, §5, §6

[9] = Test 6: brain concentration of 14C-labelled compound after intravenous administration; type: in vivo, C57 Black-strain mice; settings: administered intraperitoneally or intravenously in mice
Protocol: After a last injection of heparin, the treated mice were anesthetized with ethylether and the breast opened surgically. The blood was withdrawn from the heart and the lower portion of the heart ventricle was cut off. A catheter was inserted at the ventricle into the artery and fixed by means of binding threads. The two veins at the neck were opened surgically, and immediately physiological saline was injected through said catheter so that the remaining blood was entirely withdrawn at the opened veins together with the washing saline. The whole brain was removed from the sacrificed mouse, and the whole brain was dried in air at ambient temperature overnight.

With `N[C@H](C(=O)O)[C@H](O)c1ccc(O)c(O)c1` (relative stereo) [DL-threo-DOPS, DL-threo-3-(3,4-dihydroxyphenyl)serine, reference compound] the “Reduction (%) in the duration of tremor action” value (“Reduction (%) in the duration” for short) ([1]; 400 mg/kg i.p.) was 26% and the “Quantity (as average) of the administered compound present in brain” value [2] was “Not detectable”.
In the case of `CN[C@H](C(=O)O)[C@H](O)c1ccc(O)c(O)c1` (relative stereo) [DL-threo-adrenalinecarboxylic acid, DL-threo-3-(3,4-dihydroxyphenyl)-N-methylserine], the “Reduction (%) in the duration” value ([1]; 400 mg/kg i.p.) is reported as 34%, the “Reduction (%) in the duration” value ([1]; 600 mg/kg i.p.) is reported as 37% and the “reduction in duration of tremor action, comparison in words” value ([1]; i.p., harmaline 10 mg/kg) is reported as “significantly superior to DL-threo-DOPS”. The “Body Temperature (°C.) 1 Hour after” value ([3]; 1500 mg/kg i.p.) was 32.9 °C, the “Body Temperature (°C.) 2 Hours after” value ([3]; 1500 mg/kg i.p.) was 32.6 °C and the “Body Temperature (°C.) 1 Hour after” value ([3]; 2000 mg/kg i.p.) was 34.0 °C. The “Body Temperature (°C.) 2 Hours after” value ([3]; 2000 mg/kg i.p.) was 32.5 °C, the “effect on reserpine-induced decrease in body temperature, in words” value ([3]; 1500 or 2000 mg/kg i.p., compared to control mice receiving reserpine only) was “inhibited the reserpine-induced decrease in the body temperature” and the “Body Temperature (°C.) (Average ± Standard deviation) 24 Hours after administration of reserpine” value [4] was 34.9 ± 0.7 °C. The “Body Temperature (°C.) (Average ± Standard deviation) 1 Hour after administration of adrenaline carboxylic acid” value ([4]; 800 mg/kg i.p.) was 36.9 ± 0.3 °C, the “Muscular Rigidity: number of mice exhibiting significant improvement in the muscular rigidity per the total number of mice in each group” value ([4]; 800 mg/kg i.p.) was 0/5 and the “Body Temperature (°C.) (Average ± Standard deviation) Before administration of reserpine” value [4] was 39.1 ± 0.2 °C. The “acute toxicity: body weight, quantity of feedstock and quantity of water taken, treated vs control group” value ([5]; 7 days observation) was “No diference could be detected”, the “acute toxicity: anatomical examination, organ weights, bio-chemical tests of blood, tissue-pathological tests, treated vs control group” value ([5]; after 7 days) was “no significant difference existed” and the “Quantity (as average) of the administered compound present in brain” value [2] was 2.0 n mole/g. The “Quantity (as average) of adrenaline in brain” value ([2]; not administered: 0.37 n mole/g) was 0.44 n mole/g.
For `N[C@@H](C(=O)O)[C@H](O)c1ccc(O)c(O)c1` [D-erythro-DOPS], the “levels of noradrenaline in heart and brain” value [6] is listed as “slight increase”.
For `N[C@@H](C(=O)O)[C@@H](O)c1ccc(O)c(O)c1` [D-threo-DOPS], the “levels of noradrenaline in heart and brain” value [6] is listed as “slight increase”.
For `CN[C@@H](C(=O)O)[C@@H](O)c1ccc(O)c(O)c1` [D-threo-adrenalinecarboxylic acid], the “Body Temperature (°C.) (Average ± Standard deviation) 24 Hours after administration of reserpine” value [4] was 36.0 ± 0.5 °C, the “Body Temperature (°C.) (Average ± Standard deviation) 1 Hour after administration of adrenaline carboxylic acid” value ([4]; 800 mg/kg i.p.) was 35.9 ± 0.5 °C and the “Muscular Rigidity: number of mice exhibiting significant improvement in the muscular rigidity per the total number of mice in each group” value ([4]; 800 mg/kg i.p.) was 0/5. For the same compound, the “Body Temperature (°C.) (Average ± Standard deviation) Before administration of reserpine” value [4] was 38.9 ± 0.2 °C.
With `N[C@@H](Cc1ccc(O)c(O)c1)C(=O)O` [L-DOPA, L-3,4-dihydroxyphenylalanine] the metabolised at 0.5 h, 4500 µM [7] was over 11.7%.
For `N[C@H](C(=O)O)[C@@H](O)c1ccc(O)c(O)c1` [L-erythro-DOPS], the “accumulation of noradrenaline in brain” value [6] is given as “significant” and the “decarboxylation in vivo, leading to accumulation of noradrenaline in heart” value [6] is given as “readily decarboxylated in vivo”.
For `N[C@H](C(=O)O)[C@H](O)c1ccc(O)c(O)c1` [L-threo-DOPS, L-threo-3-(3,4-dihydroxyphenyl)serine], the metabolised at 0.5 h, 4500 µM [7] is given as over 0.52%, the “decarboxylation in vitro by homogenate of whole brains of mice, in words” value [8] is given as “can be decarboxylated into noradrenaline” and the “accumulation of natural (l)-noradrenaline in the brain” value ([6]; after direct injection into a cerebral ventricle) is given as “marked”. For the same compound, the “accumulation of noradrenaline in brain” value [6] was “negligible” and the “decarboxylation in vivo, leading to accumulation of noradrenaline in heart” value [6] was “readily decarboxylated in vivo”.
For `CN[C@H](C(=O)O)[C@H](O)c1ccc(O)c(O)c1` [L-threo-adrenalinecarboxylic acid, L-threo-3-(3,4-dihydroxyphenyl)-N-methylserine], the “Body Temperature (°C.) (Average ± Standard deviation) 24 Hours after administration of reserpine” value [4] was 35.4 ± 0.4 °C, the “effect on reserpine-induced decrease in body temperature, in words” value ([4]; 800 mg/kg i.p.) was “remarkably inhibits the reserpine-induced decrease in the body temperature” and the “effect on reserpine-induced muscular rigidity, in words” value ([4]; 800 mg/kg i.p.) was “remarkably improves (eliminates or weakens) the muscular rigidity”. The “Body Temperature (°C.) (Average ± Standard deviation) 1 Hour after administration of adrenaline carboxylic acid” value ([4]; 800 mg/kg i.p.) was 38.7 ± 0.5 °C, the “Muscular Rigidity: number of mice exhibiting significant improvement in the muscular rigidity per the total number of mice in each group” value ([4]; 800 mg/kg i.p.) was 5/5 and the “Body Temperature (°C.) (Average ± Standard deviation) Before administration of reserpine” value [4] was 39.0 ± 0.2 °C. The “penetration through the blood-brain barrier, in words” value [9] was “can surprisingly penetrate and transfer through the blood-brain barrier into the brain”, the metabolised at 0.5 h, 4500 µM [7] was under 0.00031% and the “decarboxylation in vitro by homogenate of whole brains of mice, in words” value ([8]; in vitro, mouse whole brain homogenate) was “can hardly be decarboxylated into adrenaline”.
